Species: Rattus norvegicus
Assay: Open TG-GATES - Regimen: Single
Assay type: toxicity, organism-based, Sprague-Dawley
Set-up: regimen Single, gender Male, age 6 weeks
Conditions: in vivo, po, 50 mg/kg, route gavage, dose level Middle; for APTT / Bas / Eos / Fbg / Hb / Ht / Lym / MCH / MCHC / MCV / Mono / Neu / PT / Plat / RBC / Ret / WBC: tissue Blood; for KIDNEY_L / KIDNEY_R / KIDNEY_TOTAL: tissue Kidney; for LIVER: tissue Liver; for A/G / ALP / ALT / AST / BUN / CRE / Ca / Cl / DBIL / GLC / IP / K / LDH / Na / PL / RALB / TBIL / TC / TG / TP / gamma-GTP: tissue Plasma

## CN(C)CCC=C1c2ccccc2CCc2ccccc21 [AMITRIPTYLINE]
3 h
  TERMINAL_BW: 194.1 g
  APTT: 16.5 s
  Bas: 0.4%
  Eos: 1%
  Fbg: 273 mg/dL
  Hb: 13.2 g/dL
  Ht: 41.1%
  Lym: 74%
  MCH: 21.1 pg
  MCHC: 32.2%
  MCV: 65.4 fL
  Mono: 3.4%
  Neu: 20.4%
  PT: 15.8 s
  Plat: 128.6 x10_4/uL
  RBC: 629.2 x10_4/ul
  Ret: 9.2%
  WBC: 102.1 x10_2/uL
  KIDNEY_L: 0.9 g
  KIDNEY_R: 0.9 g
  KIDNEY_TOTAL: 1.7 g
  LIVER: 8.7 g
  A/G: 0.8
  ALP: 1574.4 IU/L
  ALT: 62.8 IU/L
  AST: 79 IU/L
  BUN: 8 mg/dL
  CRE: 0.2 mg/dL
  Ca: 11 mg/dL
  Cl: 107.8 meq/L
  DBIL: 0.012 mg/dL
  GLC: 192.8 mg/dL
  IP: 9.3 mg/dL
  K: 4.2 meq/L
  LDH: 90.8 IU/L
  Na: 144.2 meq/L
  PL: 143.2 mg/dL
  RALB: 2.5 g/dL
  TBIL: 0.062 mg/dL
  TC: 78.8 mg/dL
  TG: 42.8 mg/dL
  TP: 5.5 g/dL
  gamma-GTP: 0.8 IU/L
6 h
  TERMINAL_BW: 191.7 g
  APTT: 15.9 s
  Bas: 0.4%
  Eos: 1%
  Fbg: 283 mg/dL
  Hb: 13.1 g/dL
  Ht: 40.7%
  Lym: 72.6%
  MCH: 20.9 pg
  MCHC: 32.4%
  MCV: 64.7 fL
  Mono: 3%
  Neu: 22.4%
  PT: 15.9 s
  Plat: 117.4 x10_4/uL
  RBC: 629.4 x10_4/ul
  Ret: 9.3%
  WBC: 84.5 x10_2/uL
  KIDNEY_L: 0.9 g
  KIDNEY_R: 0.9 g
  KIDNEY_TOTAL: 1.8 g
  LIVER: 7.9 g
  A/G: 0.9
  ALP: 1530.6 IU/L
  ALT: 47 IU/L
  AST: 76.4 IU/L
  BUN: 6.8 mg/dL
  CRE: 0.1 mg/dL
  Ca: 10.7 mg/dL
  Cl: 106.8 meq/L
  DBIL: 0.006 mg/dL
  GLC: 179.2 mg/dL
  IP: 9.9 mg/dL
  K: 4.1 meq/L
  LDH: 65.4 IU/L
  Na: 143.4 meq/L
  PL: 138.2 mg/dL
  RALB: 2.5 g/dL
  TBIL: 0.07 mg/dL
  TC: 81.2 mg/dL
  TG: 34.8 mg/dL
  TP: 5.5 g/dL
  gamma-GTP: 0.8 IU/L
9 h
  TERMINAL_BW: 188 g
  APTT: 16.3 s
  Bas: 0%
  Eos: 1%
  Fbg: 282.6 mg/dL
  Hb: 13.2 g/dL
  Ht: 40.4%
  Lym: 74%
  MCH: 21.1 pg
  MCHC: 32.7%
  MCV: 64.5 fL
  Mono: 2.2%
  Neu: 22%
  PT: 15.7 s
  Plat: 117.9 x10_4/uL
  RBC: 626.2 x10_4/ul
  Ret: 8.6%
  WBC: 86.3 x10_2/uL
  KIDNEY_L: 0.8 g
  KIDNEY_R: 0.8 g
  KIDNEY_TOTAL: 1.6 g
  LIVER: 7.4 g
  A/G: 0.9
  ALP: 1395.8 IU/L
  ALT: 42.4 IU/L
  AST: 73.8 IU/L
  BUN: 8 mg/dL
  CRE: 0.1 mg/dL
  Ca: 10.8 mg/dL
  Cl: 107.2 meq/L
  DBIL: 0.014 mg/dL
  GLC: 170.2 mg/dL
  IP: 9.9 mg/dL
  K: 4.2 meq/L
  LDH: 72.8 IU/L
  Na: 142.4 meq/L
  PL: 143.4 mg/dL
  RALB: 2.5 g/dL
  TBIL: 0.062 mg/dL
  TC: 79.2 mg/dL
  TG: 49.8 mg/dL
  TP: 5.4 g/dL
  gamma-GTP: 1 IU/L
24 h
  TERMINAL_BW: 205.9 g
  APTT: 16.7 s
  Bas: 0.2%
  Eos: 1%
  Fbg: 268 mg/dL
  Hb: 13.1 g/dL
  Ht: 39.8%
  Lym: 79.2%
  MCH: 21.1 pg
  MCHC: 32.8%
  MCV: 64.4 fL
  Mono: 2.6%
  Neu: 16.2%
  PT: 16.4 s
  Plat: 117.1 x10_4/uL
  RBC: 618.8 x10_4/ul
  Ret: 8.8%
  WBC: 101.4 x10_2/uL
  KIDNEY_L: 0.9 g
  KIDNEY_R: 0.9 g
  KIDNEY_TOTAL: 1.7 g
  LIVER: 9.2 g
  A/G: 0.8
  ALP: 1528.4 IU/L
  ALT: 49.8 IU/L
  AST: 72.6 IU/L
  BUN: 14.2 mg/dL
  CRE: 0.2 mg/dL
  Ca: 11 mg/dL
  Cl: 105.2 meq/L
  DBIL: 0.018 mg/dL
  GLC: 181.6 mg/dL
  IP: 7.1 mg/dL
  K: 4.3 meq/L
  LDH: 69.2 IU/L
  Na: 142.6 meq/L
  PL: 153 mg/dL
  RALB: 2.6 g/dL
  TBIL: 0.056 mg/dL
  TC: 82.6 mg/dL
  TG: 97.8 mg/dL
  TP: 5.6 g/dL
  gamma-GTP: 0.2 IU/L

Reference: ChEMBL document CHEMBL3885861, “Open TG-GATES”
